Measured values taken from patent publication US10688200B2, “Urea-based prostate specific membrane antigen (PSMA) inhibitors for imaging and therapy” (Five Eleven Pharma Inc., priority 2015, dated 2020).

Key:
PSMA [1] = biological target: T1, PSMA (Homo sapiens, UniProt Q04609); test: In vitro binding signals of 68Ga labeled ligands in LNCaP tumor homogenates; details: Ga-68 radiolabeled ligands; for Total binding (TB): 37° C. 60 min; for Nonspecific binding (NSB): with 1a (PSMA11) 10 μM
T1 construct: 100 μL of freshly harvested PSMA cells; endogenous in cells; host or cells: 'PSMA cells' in the method

PSMA [2] = biological target: T1, PSMA; test: In vitro competitive binding assay to determine IC50 to PSMA; details: LNCaP cells, [125I]MIP-1095 radioligand, 37° C. 1 h, mean±SD (n=4); read-out: PSMA binding affinities of cold ligands, IC50
Procedure: In Vitro Competitive Binding Assay to Determine IC50 to PSMA
In order to determine the binding affinity, in vitro competitive binding assays were performed. The LNCaP cells were incubated with 150,000 cpm of [^125I]MIP-1095 in the presence of 10 different concentrations of competing drugs. After incubation at 37° C. for 1 h, the bound and free radioactivity were separated by vacuum filtration through GF/B filter paper using a Brandel M-24R cell harvester followed by washing twice. Non-specific binding was defined with 10 μM PMPA. The cell bound radioactivity was measured with a gamma counter, 2470 Wizard^2 (Perkin-Elmer, IL). The IC50 values were calculated by fitting the data using a nonlinear regression algorithm (GraphPad Software).
The PSMA binding affinities were determined in a competitive binding assay using LNCaP human prostate carcinoma cells and the known high affinity PSMA ligand, [^125I]MIP-1095 as the radioligand. Data are expressed as mean±SD (n=4).

T1 sequence (Q04609 whole entry): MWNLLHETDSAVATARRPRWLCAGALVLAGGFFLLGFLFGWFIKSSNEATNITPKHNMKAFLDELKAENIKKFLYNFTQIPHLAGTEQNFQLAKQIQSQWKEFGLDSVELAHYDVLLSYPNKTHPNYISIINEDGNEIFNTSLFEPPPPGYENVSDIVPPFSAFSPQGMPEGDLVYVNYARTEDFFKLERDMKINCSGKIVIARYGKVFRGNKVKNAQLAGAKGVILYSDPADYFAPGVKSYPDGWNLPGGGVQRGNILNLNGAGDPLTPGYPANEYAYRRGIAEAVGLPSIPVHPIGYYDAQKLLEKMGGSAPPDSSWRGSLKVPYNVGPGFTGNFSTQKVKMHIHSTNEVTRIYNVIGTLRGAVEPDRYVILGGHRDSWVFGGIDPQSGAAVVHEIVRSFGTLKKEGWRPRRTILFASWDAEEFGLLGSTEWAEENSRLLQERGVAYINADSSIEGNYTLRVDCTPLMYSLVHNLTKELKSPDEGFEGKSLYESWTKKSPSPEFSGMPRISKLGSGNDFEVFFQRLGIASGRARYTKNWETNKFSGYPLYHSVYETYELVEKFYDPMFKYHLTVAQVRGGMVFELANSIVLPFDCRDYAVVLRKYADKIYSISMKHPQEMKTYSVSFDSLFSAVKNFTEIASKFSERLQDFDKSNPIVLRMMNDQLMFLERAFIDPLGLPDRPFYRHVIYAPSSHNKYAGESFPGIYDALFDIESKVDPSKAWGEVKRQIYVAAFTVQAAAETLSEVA

SMILES	Specific binding (SB) SB = TB − NSB (PSMA [1])	Total binding (TB) (PSMA [1])	Nonspecific binding (NSB) (PSMA [1])	IC50 (PSMA [2])
O=C(O)CC[C@H](NC(=O)N[C@@H](CCCCNC(=O)CCCCCNC(=O)CCc1ccc(O)c(CN(CCN(CC(=O)O)Cc2cc(CCC(=O)N[C@H]3C(O)O[C@H](CO)[C@@H](O)[C@@H]3O)ccc2O)CC(=O)O)c1)C(=O)O)C(=O)O (stereo partly drawn) [Compound 1b, (3S,7S)-22-(3-(((Carboxymethyl)(2-((carboxymethyl)(2-hydroxy-5-(3-oxo-3-(((3R,4R,5S,6R)-2,4,5-trihydroxy-6-(hydroxymethyl)tetrahydro-2H-pyran-3-yl)amino)propyl)benzyl)amino)ethyl)amino)methyl)-4-hydroxyphenyl)-5,13,20-trioxo-4,6,12,19-tetraazadocosane-1,3,7-tricarboxylic acid]	8.8	10.8	2.0	53.3 ± 30.9 nM
O=C(O)CC[C@H](NC(=O)N[C@@H](CCCCNC(=O)CCCCCNC(=O)CCc1ccc(O)c(CN(CCN(CC(=O)O)Cc2cc(CCC(=O)NCC(=O)O)ccc2O)CC(=O)O)c1)C(=O)O)C(=O)O [Compound 1c, (3S,7S)-22-(3-(((Carboxymethyl)(2-((carboxymethyl)(5-(3-((carboxymethyl)amino)-3-oxopropyl)-2-hydroxybenzyl)amino)ethyl)amino)methyl)-4-hydroxyphenyl)-5,13,20-trioxo-4,6,12,19-tetraazadocosane-1,3,7-tricarboxylic acid]	11.8	13.4	1.6	25.6 ± 9.4 nM
C[C@H](NC(=O)CCc1ccc(O)c(CN(CCN(CC(=O)O)Cc2cc(CCC(=O)NCCCCCC(=O)NCCCC[C@H](NC(=O)N[C@@H](CCC(=O)O)C(=O)O)C(=O)O)ccc2O)CC(=O)O)c1)C(=O)O [Compound 1d, (3S,7S)-22-(3-(((2-((5-(3-(((S)-1-Carboxyethyl)amino)-3-oxopropyl)-2-hydroxybenzyl)(carboxymethyl)amino)ethyl)(carboxymethyl)amino)methyl)-4-hydroxyphenyl)-5,13,20-trioxo-4,6,12,19-tetraazadocosane-1,3,7-tricarboxylic acid]	11.2	12.6	1.4	26.8 ± 6.3 nM
O=C(O)CC[C@H](NC(=O)N[C@@H](CCCCNC(=O)CCCCCNC(=O)CCc1ccc(O)c(CN(CCN(CC(=O)O)Cc2cc(CCC(=O)N[C@@H](CC(=O)O)C(=O)O)ccc2O)CC(=O)O)c1)C(=O)O)C(=O)O [Compound 1e, (3S,7S)-22-(3-(((Carboxymethyl)(2-((carboxymethyl)(5-(3-(((S)-1,2-dicarboxyethyl)amino)-3-oxopropyl)-2-hydroxybenzyl)amino)ethyl)amino)methyl)-4-hydroxyphenyl)-5,13,20-trioxo-4,6,12,19-tetraazadocosane-1,3,7-tricarboxylic acid]	13.2	14.8	1.6	29.5 ± 11 nM
O=C(O)CC[C@H](NC(=O)CCc1ccc(O)c(CN(CCN(CC(=O)O)Cc2cc(CCC(=O)NCCCCCC(=O)NCCCC[C@H](NC(=O)N[C@@H](CCC(=O)O)C(=O)O)C(=O)O)ccc2O)CC(=O)O)c1)C(=O)O [Compound 1f, (3S,7S)-22-(3-(((Carboxymethyl)(2-((carboxymethyl)(5-(3-(((S)-1,3-dicarboxypropyl)amino)-3-oxopropyl)-2-hydroxybenzyl)amino)ethyl)amino)methyl)-4-hydroxyphenyl)-5,13,20-trioxo-4,6,12,19-tetraazadocosane-1,3,7-tricarboxylic acid]	12.0	13.5	1.5	37.2 ± 18.6 nM
O=C(O)CC[C@H](NC(=O)N[C@@H](CCCCNC(=O)CCCCCNC(=O)CCc1ccc(O)c(CN(CCN(CC(=O)O)Cc2cc(CCC(=O)NCCNC(=O)CN3CCN(CC(=O)O)CCN(CC(=O)O)CCN(CC(=O)O)CC3)ccc2O)CC(=O)O)c1)C(=O)O)C(=O)O [Compound 1g, (3S,7S)-22-(3-(((carboxymethyl)(2-((carboxymethyl)(2-hydroxy-5-(3-oxo-3-((2-(2-(4,7,10-tris(carboxymethyl)-1,4,7,10-tetraazacyclododecan-1-yl)acetamido)ethyl)amino)propyl)benzyl)amino)ethyl)amino)methyl)-4-hydroxyphenyl)-5,13,20-trioxo-4,6,12,19-tetraazadocosane-1,3,7-tricarboxylic acid]	9.0	10.5	1.5	70.2 ± 29.1 nM
O=C(O)CCc1ccc(O)c(CN(CCN(CC(=O)O)Cc2nc(CCC(=O)NCCCCCC(=O)NCCCC[C@H](NC(=O)N[C@@H](CCC(=O)O)C(=O)O)C(=O)O)ccc2O)CC(=O)O)n1 [Compound 2, (3S,7S)-22-(6-(((2-(((6-(2-Carboxyethyl)-3-hydroxypyridin-2-yl)methyl) (carboxymethyl)amino)ethyl)(carboxymethyl)amino)methyl)-5-hydroxypyridin-2-yl)-5,13,20-trioxo-4,6,12,19-tetraazadocosane-1,3,7-tricarboxylic acid]	4.1	9.2	5.1	40.4 ± 18.3 nM
O=C(O)CC[C@H](NC(=O)N[C@@H](CCCCNC(=O)CCCCCNC(=O)CCc1ccc(O)c(CN(CCN(CC(=O)O)Cc2nc(CCC(=O)NCCCCCC(=O)NCCCC[C@H](NC(=O)N[C@@H](CCC(=O)O)C(=O)O)C(=O)O)ccc2O)CC(=O)O)n1)C(=O)O)C(=O)O [Compound 3, (3S,3′S,7S,7′S)-22,22′-(6,6′-((Ethane-1,2-diylbis((carboxymethyl)azanediyl))bis(methylene))bis(5-hydroxypyridine-6,2-diyl))bis(5,13,20-trioxo-4,6,12,19-tetraazadocosane-1,3,7-tricarboxylic acid)]	5.8	10.0	4.2	132 ± 11 nM
O=C(O)CCc1ccc(O)c(CN(CCN(CC(=O)O)Cc2cc(CCC(=O)NCCCCCC(=O)NCCCC[C@H](NC(=O)N[C@@H](CCC(=O)O)C(=O)O)C(=O)O)ccc2O)CC(=O)O)n1 [Compound 4a, (3S,7S)-22-(3-(((2-(((6-(2-Carboxyethyl)-3-hydroxypyridin-2-yl)methyl)(carboxymethyl)amino)ethyl)(carboxymethyl)amino)methyl)-4-hydroxyphenyl)-5,13,20-trioxo-4,6,12,19-tetraazadocosane-1,3,7-tricarboxylic acid]	12.0	13.4	1.4	67.4 ± 30.3 nM
O=C(O)CCc1ccc(O)c(CN(CCN(CC(=O)O)Cc2nc(CCC(=O)NCCCCCC(=O)NCCCC[C@H](NC(=O)N[C@@H](CCC(=O)O)C(=O)O)C(=O)O)ccc2O)CC(=O)O)c1 [Compound 4b, (3S,7S)-22-(6-(((2-((5-(2-Carboxyethyl)-2-hydroxybenzyl)(carboxymethyl)amino)ethyl) (carboxymethyl)amino)methyl)-5-hydroxypyridin-2-yl)-5,13,20-trioxo-4,6,12,19-tetraazadocosane-1,3,7-tricarboxylic acid]	8.8	10.3	1.5	40.5 ± 20.5 nM
O=C(O)CC[C@H](NC(=O)N[C@@H](CCCCNC(=O)[C@H](Cc1ccccc1)NC(=O)COc1ccc(C[C@H](NC(=O)CNC(=O)CN2CCN(CC(=O)O)CCN(CC(=O)O)CCN(CC(=O)O)CC2)C(=O)O)cc1)C(=O)O)C(=O)O [Compound 5a, (4S,11S,15S)-4-Benzyl-1-(4-((S)-2-carboxy-2-(2-(2-(4,7,10-tris(carboxymethyl)-1,4,7,10-tetraazacyclododecan-1-yl)acetamido)acetamido)ethyl)phenoxy)-2,5,13-trioxo-3,6,12,14-tetraazaheptadecane-11,15,17-tricarboxylic acid.]	2.83	3.30	0.47	36.1 ± 18.1 nM
